These are literature values, as cited in US20230139125A1, “DIETARY SUPPLEMENT FOR IMPROVING BRAIN PERFORMANCE” (priority 2021, published 2023).

One data set concerns age-related memory loss. The settings on record: end of six-month period; participants with relatively low memory scores at start; compared to placebo.
For data set [1], the system named is brain-derived neurotrophic factor (i.e. BDNF). The settings on record: ingesting small amounts.

With Phosphatidylserine [PS], in the data set on age-related memory loss, the memory entry is recorded as “significant improvement in memory”.

Take chlorogenic acids: the “brain-derived neurotrophic factor (i.e. BDNF)” value in data set [1] is given as “not obtained”.
